Values after ≈ are worked out from the molar mass of the structure shown. Values joined by “and” are separate entries in the source; they are usually repeats but may differ in a detail not shown here. Identical values can stand only once.
System: newly emerged larvae of the blowfly, Lucilia sericata
Test: treated paper/serum bioassay, contact and/or ingestion activity against newly emerged blowfly larvae
Format: in vivo
Conditions: single compound
Description: Contact and/or ingestion activities of compounds against newly emerged larvae of the blowfly, Lucilia sericata, are tested using a treated paper/serum bioassay. In this assay, test compounds diluted to the required concentrations in acetone are applied to filter paper discs and allowed to dry. Bovine serum and newly emerged blowfly larvae are added to the discs and mortality assessed at 24 and 48 hours.

[1] = larval mortality assessed at 48 hours

Compound	LC50 (Lucilia sericata, 48 h, larval mortality assessed at 48 hours, read-out: Approximate LC50 48 hour)	Approximate LC50 48 hour [1]	Approximate LC50 24 hour (larval mortality assessed at 24 hours)
CCOCn1c(-c2ccc(Cl)cc2)c(C#N)c(Br)c1C(F)(F)F [C, 4-bromo-2-(p-chlorophenyl)-1-(ethoxymethyl)-5-(trifluoromethyl)pyrrole-3-carbonitrile]	2.5 µg/mL (≈ 6.13 µM)	4.69 µg/mL	–
moxidectin	–	0.80 µg/mL and 0.63 µg/mL	1.54 µg/mL and 0.85 µg/mL

Reference: patent publication US6479537B2, “Synergistic ectoparasiticidal methods and compositions” (American Cyanamid Company, priority 2000, dated 2002)
